Results on 1 compound are retold here after BindingDB's records for doi:10.1021/jm801322h (Pfizer, 2009).

A word on the IC50: it is the concentration that inhibits the measured activity by half. The low end stands for greater potency, the high end for weaker potency.

Structures are written as SMILES.

In this test the target is T1, Gag-Pol polyprotein [588-1027] (Human immunodeficiency virus type 1 group M subtype B (isolate HXB2), UniProt P04585).
T1 construct: 588-1027
As to the kind of experiment: Reverse Transcriptase Assay. The settings on record: pH 7.8; 37 °C. The procedure:
The inhibition of the RNA-dependent DNA polymerase activity of the HIV-1 reverse transcriptase enzyme was measured using a primer extension assay. The substrate-incorporated radioactivity was measured using the Topcount NXT with a reading time of 1 minute/well and IC50 were deduced from the dose response curves obtained.

Compound `CNCc1n[nH]c2cccc(Oc3cc(C#N)cc(C#N)c3)c12` [5-({3-[(methylamino)methyl]-1H-indazol-4-yl}oxy)benzene-1,3-dicarbonitrile] had an IC50 above 30 µM.
